Laboratory results from ChEMBL document CHEMBL1201862, “PubChem BioAssay data set” (2004).
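Following 48 hours of exposure in 96-well plates, responses at five concentrations were used to interpolate endpoints linearly. Abbreviation: GI50, concentration required for 50% inhibition of growth.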 Activity calls are given as the source filed them. No stated cut-off is given here; in the data, active = GI50 up to about 1.1 µM and inactive = higher.

Experiments:
Experiment in all cases: NCI anticancer screen, dose series, 48 h
SF-539 = system: SF-539
OVCAR-5 = system: OVCAR-5
OVCAR-3 = system: OVCAR-3
SF-268 = system: SF-268
EKVX = system: EKVX
KM12 = system: KM12
SK-MEL-28 = system: SK-MEL-28
BT-549 = system: BT-549
SW-620 = system: SW-620
NCI-H23 = system: NCI-H23
A498 = system: A498
SK-MEL-5 = system: SK-MEL-5
UO-31 = system: UO-31
MCF7 = system: MCF7
CCRF-CEM = system: CCRF-CEM
RXF 393 = system: RXF 393
M14 = system: M14
UACC-257 = system: UACC-257
U-251 = system: U-251
MOLT-4 = system: MOLT-4
HOP-92 = system: HOP-92
HT-29 = system: HT-29
LOX IMVI = system: LOX IMVI
HCC 2998 = system: HCC 2998
SNB-19 = system: SNB-19
HCT-116 = system: HCT-116
NCI/ADR-RES = system: NCI/ADR-RES
COLO 205 = system: COLO 205
SN12C = system: SN12C
PC-3 = system: PC-3
Hs-578T = system: Hs-578T
RPMI-8226 = system: RPMI-8226
SK-MEL-2 = system: SK-MEL-2
OVCAR-8 = system: OVCAR-8
ACHN = system: ACHN
A549 = system: A549
DU-145 = system: DU-145
SK-OV-3 = system: SK-OV-3
UACC-62 = system: UACC-62
786-0 = system: 786-0
IGROV-1 = system: IGROV-1
NCI-H460 = system: NCI-H460
MDA-MB-231 = system: MDA-MB-231
MDA-MB-435 = system: MDA-MB-435
HL-60 = system: HL-60
NCI-H522 = system: NCI-H522
HOP-62 = system: HOP-62
SR = system: SR
SF-295 = system: SF-295
Malme-3M = system: Malme-3M
CAKI-1 = system: CAKI-1
K562 = system: K562
NCI-H226 = system: NCI-H226
HCT-15 = system: HCT-15
T47D = system: T47D
SNB-75 = system: SNB-75
MDA-N = system: MDA-N
TK-10 = system: TK-10
OVCAR-4 = system: OVCAR-4

With `CC1=NC(C)(C)[N+]([O-])=C1` the GI50 (SF-539) was > 10 µM (inactive), the GI50 (OVCAR-5) was > 10 µM (inactive) and the GI50 (OVCAR-3) was > 10 µM (inactive). The GI50 (SF-268) was > 10 µM (inactive), the GI50 (EKVX) was > 10 µM (inactive) and the GI50 (KM12) was > 10 µM (inactive). The GI50 (SK-MEL-28) was > 10 µM (inactive), the GI50 (BT-549) was > 10 µM (inactive) and the GI50 (SW-620) was > 10 µM (inactive). The GI50 (NCI-H23) was > 10 µM (inactive), the GI50 (A498) was > 10 µM (inactive) and the GI50 (SK-MEL-5) was > 10 µM (inactive). For the same compound, the GI50 (UO-31) was > 10 µM (inactive), the GI50 (MCF7) was > 10 µM (inactive) and the GI50 (CCRF-CEM) was > 10 µM (inactive). For the same compound, the GI50 (RXF 393) was > 10 µM (inactive), the GI50 (M14) was > 10 µM (inactive) and the GI50 (UACC-257) was > 10 µM (inactive). For the same compound, the GI50 (U-251) was > 10 µM (inactive), the GI50 (MOLT-4) was > 10 µM (inactive) and the GI50 (HOP-92) was > 10 µM (inactive). For the same compound, the GI50 (HT-29) was > 10 µM (inactive), the GI50 (LOX IMVI) was > 10 µM (inactive) and the GI50 (HCC 2998) was > 10 µM (inactive). For the same compound, the GI50 (SNB-19) was > 10 µM (inactive), the GI50 (HCT-116) was > 10 µM (inactive) and the GI50 (NCI/ADR-RES) was > 10 µM (inactive). The GI50 (COLO 205) was > 10 µM (inactive), the GI50 (SN12C) was > 10 µM (inactive) and the GI50 (PC-3) was > 10 µM (inactive). For the same compound, the GI50 (Hs-578T) was > 10 µM (inactive), the GI50 (RPMI-8226) was > 10 µM (inactive) and the GI50 (SK-MEL-2) was > 10 µM (inactive). The GI50 (OVCAR-8) was > 10 µM (inactive), the GI50 (ACHN) was > 10 µM (inactive) and the GI50 (A549) was > 10 µM (inactive). For the same compound, the GI50 (DU-145) was > 10 µM (inactive), the GI50 (SK-OV-3) was > 10 µM (inactive) and the GI50 (UACC-62) was > 10 µM (inactive). The GI50 (786-0) was > 10 µM (inactive), the GI50 (IGROV-1) was > 10 µM (inactive) and the GI50 (NCI-H460) was > 10 µM (inactive). The GI50 (MDA-MB-231) was > 10 µM (inactive), the GI50 (MDA-MB-435) was > 10 µM (inactive) and the GI50 (HL-60) was > 10 µM (inactive). For the same compound, the GI50 (NCI-H522) was > 10 µM (inactive), the GI50 (HOP-62) was > 10 µM (inactive) and the GI50 (SR) was 0.001 µM (active). For the same compound, the GI50 (SF-295) was > 10 µM (inactive), the GI50 (Malme-3M) was 8.73 µM (inactive) and the GI50 (CAKI-1) was > 10 µM (inactive). For the same compound, the GI50 (K562) was > 10 µM (inactive), the GI50 (NCI-H226) was > 10 µM (inactive) and the GI50 (HCT-15) was > 10 µM. The GI50 (T47D) was > 10 µM (inactive), the GI50 (SNB-75) was 0.0718 µM (active) and the GI50 (MDA-N) was > 10 µM (inactive). The GI50 (TK-10) was > 10 µM (inactive).
For `NCCN1C(=O)c2ccccc2C1c1ccc(Cl)cc1` (centres undefined), the GI50 (SF-539) was > 100 µM (inactive), the GI50 (OVCAR-5) was > 100 µM (inactive) and the GI50 (OVCAR-3) was > 100 µM (inactive). The GI50 (SF-268) was > 100 µM (inactive), the GI50 (EKVX) was > 100 µM (inactive) and the GI50 (KM12) was > 100 µM (inactive). For the same compound, the GI50 (SK-MEL-28) was > 100 µM (inactive), the GI50 (BT-549) was > 100 µM (inactive) and the GI50 (SW-620) was > 100 µM (inactive). The GI50 (NCI-H23) was > 100 µM (inactive), the GI50 (A498) was > 100 µM (inactive) and the GI50 (SK-MEL-5) was > 100 µM (inactive). The GI50 (UO-31) was > 100 µM (inactive), the GI50 (MCF7) was > 100 µM (inactive) and the GI50 (CCRF-CEM) was > 100 µM (inactive). The GI50 (RXF 393) was > 100 µM (inactive), the GI50 (M14) was > 100 µM (inactive) and the GI50 (UACC-257) was > 100 µM (inactive). The GI50 (U-251) was > 100 µM (inactive), the GI50 (MOLT-4) was > 100 µM (inactive) and the GI50 (HOP-92) was > 100 µM (inactive). For the same compound, the GI50 (HT-29) was > 100 µM (inactive), the GI50 (LOX IMVI) was > 100 µM (inactive) and the GI50 (HCC 2998) was > 100 µM (inactive). The GI50 (SNB-19) was > 100 µM (inactive), the GI50 (HCT-116) was > 100 µM (inactive) and the GI50 (NCI/ADR-RES) was > 100 µM (inactive). For the same compound, the GI50 (COLO 205) was > 100 µM (inactive), the GI50 (SN12C) was > 100 µM (inactive) and the GI50 (PC-3) was 92.3 µM (inactive). For the same compound, the GI50 (Hs-578T) was > 100 µM (inactive), the GI50 (RPMI-8226) was > 100 µM (inactive) and the GI50 (SK-MEL-2) was > 100 µM (inactive). The GI50 (OVCAR-8) was > 100 µM (inactive), the GI50 (ACHN) was > 100 µM (inactive) and the GI50 (A549) was > 100 µM (inactive). For the same compound, the GI50 (DU-145) was > 100 µM (inactive), the GI50 (SK-OV-3) was > 100 µM (inactive) and the GI50 (UACC-62) was > 100 µM (inactive). For the same compound, the GI50 (786-0) was > 100 µM (inactive), the GI50 (IGROV-1) was > 100 µM (inactive) and the GI50 (NCI-H460) was > 100 µM (inactive). The GI50 (MDA-MB-231) was > 100 µM (inactive), the GI50 (MDA-MB-435) was > 100 µM (inactive) and the GI50 (HL-60) was > 100 µM (inactive). The GI50 (OVCAR-4) was > 100 µM (inactive), the GI50 (HOP-62) was > 100 µM (inactive) and the GI50 (SR) was > 100 µM (inactive). For the same compound, the GI50 (SF-295) was > 100 µM (inactive), the GI50 (CAKI-1) was > 100 µM (inactive) and the GI50 (K562) was > 100 µM (inactive). The GI50 (HCT-15) was > 100 µM, the GI50 (T47D) was > 100 µM (inactive) and the GI50 (SNB-75) was > 100 µM (inactive). The GI50 (MDA-N) was > 100 µM (inactive) and the GI50 (TK-10) was > 100 µM (inactive).
